Source: patent US10406207B2, “Peptide conjugates of GLP-1 receptor agonists and gastrin and their use” (priority 2010, dated 2019)
Bridge positions count the residues as written; N and C are the ends. Square brackets hold non-standard residues; d marks the D form. Peptide text beside a SMILES is read from it. AEEA = NCCOCCOCC(=O)O

Experiments:
human CCK-B R = target: T1, human CCK-B R (Homo sapiens, UniProt P32239); experiment: Human CCK-B receptor efficacy assay (AlphaScreen SureFire p-ERK); type: cell-based; conditions: Table 2; read-out: hCCK-B R EC50
T1 construct: expressed in transfected cells
T1 sequence (P32239 1-447): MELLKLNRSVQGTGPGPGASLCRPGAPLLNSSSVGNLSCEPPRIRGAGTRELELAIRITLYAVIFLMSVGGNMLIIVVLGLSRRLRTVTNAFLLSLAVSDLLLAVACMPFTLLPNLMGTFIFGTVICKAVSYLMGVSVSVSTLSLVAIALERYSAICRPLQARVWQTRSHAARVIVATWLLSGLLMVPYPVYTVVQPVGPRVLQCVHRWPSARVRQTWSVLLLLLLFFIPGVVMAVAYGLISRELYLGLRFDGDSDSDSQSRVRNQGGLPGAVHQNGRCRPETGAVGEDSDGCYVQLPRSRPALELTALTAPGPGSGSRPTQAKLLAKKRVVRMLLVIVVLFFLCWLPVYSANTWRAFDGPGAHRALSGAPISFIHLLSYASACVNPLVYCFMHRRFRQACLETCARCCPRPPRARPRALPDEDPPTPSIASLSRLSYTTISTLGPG

human GLP-1 R = target: T2, human GLP-1 R (Homo sapiens, UniProt P43220); experiment: Human GLP-1 receptor efficacy assay (cAMP induction, FlashPlate); type: cell-based; conditions: Table 2; read-out: hGLP-1 R EC50
T2 construct: expressed in transfected cells
Procedure: On the day of analysis, growth medium was removed and the cells were washed once with 200 μl Tyrode buffer [Tyrode's Salts (9.6 g/l), 10 mM HEPES, pH 7.4]. […] The reaction was stopped by addition of 25 μl 0.5 M HCl and incubated on ice for 60 min.

in vivo = experiment: in vivo; design: species or system C57Bl mice; conditions: mouse, sc, 100 nmol/kg; for half-life: C57Bl
Procedure: Two C57Bl mice were given a single subcutaneous dose of 100 nmol/kg of each peptide. […] At each time point, samples from two mice were taken. Plasma samples were analyzed after solid phase extraction (SPE) by liquid chromatography mass spectrometry (LC-MS/MS).

T2 sequence (P43220 24-463): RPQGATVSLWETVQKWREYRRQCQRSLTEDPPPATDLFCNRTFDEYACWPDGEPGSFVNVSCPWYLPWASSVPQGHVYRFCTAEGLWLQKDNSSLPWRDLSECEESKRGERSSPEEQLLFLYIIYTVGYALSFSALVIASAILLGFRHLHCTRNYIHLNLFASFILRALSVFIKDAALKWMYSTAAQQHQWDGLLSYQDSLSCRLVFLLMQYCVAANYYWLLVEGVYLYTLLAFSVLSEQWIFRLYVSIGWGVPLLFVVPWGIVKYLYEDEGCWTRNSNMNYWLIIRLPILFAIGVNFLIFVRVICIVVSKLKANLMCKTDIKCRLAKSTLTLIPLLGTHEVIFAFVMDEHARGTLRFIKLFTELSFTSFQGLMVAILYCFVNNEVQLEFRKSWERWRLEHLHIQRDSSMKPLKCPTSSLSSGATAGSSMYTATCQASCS

SMILES | EC50 (human CCK-B R) [nM] | EC50 (human GLP-1 R) [nM] | half-life (in vivo) [h] | Half-life and exposure (in words) (in vivo)
CC[C@H](C)[C@H](NC(=O)[C@H](Cc1ccccc1)NC(=O)[C@H](CC(C)C)NC(=O)[C@H](CCCNC(=N)N)NC(=O)[C@@H](NC(=O)[C@H](C)NC(=O)[C@H](CCC(=O)O)NC(=O)[C@H](CCC(=O)O)NC(=O)[C@H](CCC(=O)O)NC(=O)[C@H](CC(C)C)NC(=O)[C@H](Cc1ccc(O)cc1)NC(=O)[C@H](CCCCN)NC(=O)[C@H](CO)NC(=O)[C@H](CC(C)C)NC(=O)[C@H](CC(=O)O)NC(=O)[C@H](CO)NC(=O)[C@@H](NC(=O)[C@H](Cc1ccccc1)NC(=O)[C@@H](NC(=O)CNC(=O)[C@H](CCC(=O)O)NC(=O)CNC(=O)[C@@H](N)Cc1c[nH]cn1)[C@@H](C)O)[C@@H](C)O)C(C)C)C(=O)N[C@@H](CCC(=O)O)C(=O)N[C@@H](Cc1c[nH]c2ccccc12)C(=O)N[C@@H](CC(C)C)C(=O)N[C@@H](CCCCN)C(=O)NCCOCCOCC(=O)NCCOCCOCC(=O)N[C@@H](Cc1ccc(O)cc1)C(=O)NCC(=O)N[C@@H](Cc1c[nH]c2ccccc12)C(=O)N[C@@H](CC(C)C)C(=O)N[C@@H](CC(=O)O)C(=O)N[C@@H](Cc1ccccc1)C(N)=O [Compound 74, [Tyr13,Leu14]Exendin-4(1-27)-Peg3-Peg3-[Leu4]Gastrin6] (H-HGEGTFTSDLSKYLEEEAVRLFIEWLK[AEEA][AEEA]YGWLDF-NH2) | 8.4 | 0.05 | 3.6 | superior to the rest
CC[C@H](C)[C@H](NC(=O)[C@H](Cc1ccccc1)NC(=O)[C@H](CC(C)C)NC(=O)[C@H](CCCNC(=N)N)NC(=O)[C@@H](NC(=O)[C@H](C)NC(=O)[C@H](CCC(=O)O)NC(=O)[C@H](CCC(=O)O)NC(=O)[C@H](CCC(=O)O)NC(=O)[C@H](CCSC)NC(=O)[C@H](Cc1ccc(O)cc1)NC(=O)[C@H](CCCCN)NC(=O)[C@H](CO)NC(=O)[C@H](CC(C)C)NC(=O)[C@H](CC(=O)O)NC(=O)[C@H](CO)NC(=O)[C@@H](NC(=O)[C@H](Cc1ccccc1)NC(=O)[C@@H](NC(=O)CNC(=O)[C@H](CCC(=O)O)NC(=O)CNC(=O)[C@@H](N)Cc1c[nH]cn1)[C@@H](C)O)[C@@H](C)O)C(C)C)C(=O)N[C@@H](CCC(=O)O)C(=O)N[C@@H](Cc1ccccc1)C(=O)N[C@@H](CC(C)C)C(=O)N[C@@H](CCCCN)C(=O)NCCOCCOCC(=O)NCCOCCOCC(=O)N[C@@H](Cc1ccc(O)cc1)C(=O)NCC(=O)N[C@@H](Cc1c[nH]c2ccccc12)C(=O)N[C@@H](CC(C)C)C(=O)N[C@@H](CC(=O)O)C(=O)N[C@@H](Cc1ccccc1)C(N)=O [Compound 75, [Tyr13,Phe25]Exendin-4(1-27)-Peg3-Peg3-[Leu4]Gastrin6] (H-HGEGTFTSDLSKYMEEEAVRLFIEFLK[AEEA][AEEA]YGWLDF-NH2) | 8.4 | 0.035 | 2.5 | 

More lines, in order of falling EC50 (human GLP-1 R), values ahead:

EC50 (human CCK-B R) [nM] | EC50 (human GLP-1 R) [nM] | half-life (in vivo) [h] | Half-life and exposure (in words) (in vivo) | SMILES
 | 0.044 | 3.1 | superior to the rest | CC[C@H](C)[C@H](NC(=O)[C@H](Cc1ccccc1)NC(=O)[C@H](CC(C)C)NC(=O)[C@H](CCCNC(=N)N)NC(=O)[C@@H](NC(=O)[C@H](C)NC(=O)[C@H](CCC(=O)O)NC(=O)[C@H](CCC(=O)O)NC(=O)[C@H](CCC(=O)O)NC(=O)[C@H](CC(C)C)NC(=O)[C@H](Cc1ccc(O)cc1)NC(=O)[C@H](CCCCN)NC(=O)[C@H](CO)NC(=O)[C@H](CC(C)C)NC(=O)[C@H](CC(=O)O)NC(=O)[C@H](CO)NC(=O)[C@@H](NC(=O)[C@H](Cc1ccccc1)NC(=O)[C@@H](NC(=O)CNC(=O)[C@H](CCC(=O)O)NC(=O)CNC(=O)[C@@H](N)Cc1c[nH]cn1)[C@@H](C)O)[C@@H](C)O)C(C)C)C(=O)N[C@@H](CCC(=O)O)C(=O)N[C@@H](Cc1ccccc1)C(=O)N[C@@H](CC(C)C)C(=O)N[C@@H](CCCCN)C(=O)NCCOCCOCC(=O)NCCOCCOCC(=O)N[C@@H](Cc1ccc(O)cc1)C(=O)NCC(=O)N[C@@H](Cc1c[nH]c2ccccc12)C(=O)N[C@@H](CC(C)C)C(=O)N[C@@H](CC(=O)O)C(=O)N[C@@H](Cc1ccccc1)C(N)=O [Compound 77, [Tyr13,Leu14,Phe25]Exendin-4(1-27)-Peg3-Peg3-[Leu4]Gastrin6] (H-HGEGTFTSDLSKYLEEEAVRLFIEFLK[AEEA][AEEA]YGWLDF-NH2)
4 | 0.032 | 1.9 |  | CC[C@H](C)[C@@H]1NC(=O)[C@H](Cc2ccccc2)NC(=O)[C@H](CC(C)C)NC(=O)[C@@H](NC(=O)[C@@H](NC(=O)[C@H](C)NC(=O)[C@H](CCC(=O)O)NC(=O)[C@H](CCC(=O)O)NC(=O)[C@H](CCC(=O)O)NC(=O)[C@H](CCSC)NC(=O)[C@H](CCC(N)=O)NC(=O)[C@H](CCCCN)NC(=O)[C@H](CO)NC(=O)[C@H](CC(C)C)NC(=O)[C@H](CC(=O)O)NC(=O)[C@H](CO)NC(=O)[C@@H](NC(=O)[C@H](Cc2ccccc2)NC(=O)[C@@H](NC(=O)CNC(=O)[C@H](CCC(=O)O)NC(=O)CNC(=O)[C@@H](N)Cc2c[nH]cn2)[C@@H](C)O)[C@@H](C)O)C(C)C)CCCCNC(=O)CC[C@@H](C(=O)N[C@@H](Cc2c[nH]c3ccccc23)C(=O)N[C@@H](CC(C)C)C(=O)N[C@@H](CCCCN)C(=O)N[C@@H](CC(N)=O)C(=O)NCCOCCOCC(=O)NCCOCCOCC(=O)N[C@@H](Cc2ccc(O)cc2)C(=O)NCC(=O)N[C@@H](Cc2c[nH]c3ccccc23)C(=O)N[C@@H](CC(C)C)C(=O)N[C@@H](CC(=O)O)C(=O)N[C@@H](Cc2ccccc2)C(N)=O)NC1=O [Compound 80, Side chain-cyclo([Lys20,Glu24]Exendin-4(1-28)-Peg3-Peg3-[Leu4]Gastrin6] (H-HGEGTFTSDLSKQMEEEAVKLFIEWLKN[AEEA][AEEA]YGWLDF-NH2; lactam 20-24)
 | 0.026 | 1.5 |  | CC[C@H](C)[C@H](NC(=O)[C@H](Cc1ccccc1)NC(=O)[C@H](CC(C)C)NC(=O)[C@@H]1CCCCNC(=O)CC[C@H](NC(=O)[C@H](CCC(=O)O)NC(=O)[C@H](CCSC)NC(=O)[C@H](CCC(N)=O)NC(=O)[C@H](CCCCN)NC(=O)[C@H](CO)NC(=O)[C@H](CC(C)C)NC(=O)[C@H](CC(=O)O)NC(=O)[C@H](CO)NC(=O)[C@@H](NC(=O)[C@H](Cc2ccccc2)NC(=O)[C@@H](NC(=O)CNC(=O)[C@H](CCC(=O)O)NC(=O)CNC(=O)[C@@H](N)Cc2c[nH]cn2)[C@@H](C)O)[C@@H](C)O)C(=O)N[C@@H](CCC(=O)O)C(=O)N[C@@H](C)C(=O)N[C@@H](C(C)C)C(=O)N1)C(=O)N[C@@H](CCC(=O)O)C(=O)N[C@@H](Cc1c[nH]c2ccccc12)C(=O)N[C@@H](CC(C)C)C(=O)N[C@@H](CCCCN)C(=O)N[C@@H](CC(N)=O)C(=O)NCCOCCOCC(=O)NCCOCCOCC(=O)N[C@@H](Cc1ccc(O)cc1)C(=O)NCC(=O)N[C@@H](Cc1c[nH]c2ccccc12)C(=O)N[C@@H](CC(C)C)C(=O)N[C@@H](CC(=O)O)C(=O)N[C@@H](Cc1ccccc1)C(N)=O [Compound 79, Side chain-cyclo([Glu16,Lys20]Exendin-4(1-28)-Peg3-Peg3-[Leu4]Gastrin6] (H-HGEGTFTSDLSKQMEEEAVKLFIEWLKN[AEEA][AEEA]YGWLDF-NH2; lactam 16-20)
